Measured values taken from ChEMBL document CHEMBL4814008, “Using porphyrins as albumin-binding molecules to enhance antitumor efficacies and reduce systemic toxicities of antimicrobial peptides” (Eur J Med Chem, 2021).
Calls of active or inactive are those of the source. The rule behind the calls is not given here.

How the values were obtained:
[1] = Toxicity in ICR mouse assessed as effect on lungs morphology at 100 uM, iv measured after 24 hrs by H and E staining based light microscopic analysis; format: organism-based; details: in vivo
4T1 [2] = experiment: Antitumor activity against mouse 4T1 cells xenografted in BALB/c mouse assessed as inhibition of tumor growth at 2.4 mg/kg, iv dosed every 3 days for 23 days; format: functional, organism-based; details: time 23.0 day
4T1 [3] = experiment: Antitumor activity against mouse 4T1 cells xenografted in BALB/c mouse assessed as reduction in tumor weight at 2.4 mg/kg, iv dosed every 3 days for 23 days and measured on day 23; format: functional; details: 4T1, iv, 552 h, time 23 day
Erythrocyte [4] = experiment: Induction of hemolysis in RBC (unknown origin) in absence of serum; format: cell-based
[5] = Time-dependent drug uptake in mouse 4T1 cells measured for 24 hrs by flow cytometric analysis; format: ADME, cell-based; details: 4t1, 24 h, TDE = time-dependent effect
[6] = Drug uptake in human L02 cells by flow cytometric analysis; format: ADME, cell-based
4T1 [7] = experiment: Anti-metastatic activity against mouse 4T1 cells xenografted in BALB/c mouse assessed as metastasized area in lungs at 2.4 mg/kg, iv dosed every 3 days for 23 days and illuminated with 670 nm laser light 30 mins after the first dose and measured on day 30 by hematoxylin and eosin staining based analysis (reference value: 44.8%); format: functional; details: time 30 day
Albumin = Albumin (Homo sapiens, UniProt P02768); experiment: Binding affinity to human serum albumin assessed as dissociation constant by fluorescence emission spectrophotometric analysis; format: ADME, cell-free
Chain of Albumin (P02768 whole entry): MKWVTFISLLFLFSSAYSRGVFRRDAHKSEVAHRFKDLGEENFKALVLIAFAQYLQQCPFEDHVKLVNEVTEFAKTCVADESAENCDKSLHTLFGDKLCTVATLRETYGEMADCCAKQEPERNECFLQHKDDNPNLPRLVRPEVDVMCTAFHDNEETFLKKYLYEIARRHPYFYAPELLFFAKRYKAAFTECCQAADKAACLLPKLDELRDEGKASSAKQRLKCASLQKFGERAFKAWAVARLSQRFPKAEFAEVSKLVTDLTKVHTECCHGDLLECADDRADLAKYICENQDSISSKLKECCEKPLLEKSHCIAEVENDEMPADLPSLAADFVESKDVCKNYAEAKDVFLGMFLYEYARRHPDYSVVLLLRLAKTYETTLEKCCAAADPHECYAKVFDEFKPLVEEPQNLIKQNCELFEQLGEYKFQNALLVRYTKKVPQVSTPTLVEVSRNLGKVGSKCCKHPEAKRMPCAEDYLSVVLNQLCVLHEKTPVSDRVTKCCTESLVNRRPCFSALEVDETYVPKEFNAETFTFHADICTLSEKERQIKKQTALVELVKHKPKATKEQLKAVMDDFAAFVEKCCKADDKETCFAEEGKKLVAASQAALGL

4T1 [8] = experiment: Cytotoxicity against mouse 4T1 cells by MTT assay; format: functional, cell-based
4T1 [9] = experiment: Phototoxicity against mouse 4T1 cells in presence of illumination by MTT assay; format: functional, cell-based; details: 4T1, light or radiation study
[10] = Drug localization in mitochondria of human MDA-MB-231 cells at 0.5 uM by DAPI staining based confocal laser scanning microscopic method; format: ADME; details: mda-mb-231, 0.5 µM
4T1 [11] = experiment: Anti-metastatic activity against mouse 4T1 cells xenografted in BALB/c mouse assessed as metastasized area in lungs at 2.4 mg/kg, iv dosed every 3 days for 23 days and measured on day 30 by hematoxylin and eosin staining based analysis (reference value: 44.8%); format: functional; details: time 30 day
[12] = Drug localization in nucleus of human MDA-MB-231 cells at 0.5 uM by DAPI staining based confocal laser scanning microscopic method; format: ADME, subcellular; details: mda-mb-231, 0.5 µM
MDA-MB-231 [13] = experiment: Phototoxicity against human MDA-MB-231 cells assessed as reduction in cell viability at 0.5 uM in presence of illumination by calcein-AM/PI staining based fluorescence analysis; format: functional
MDA-MB-231 [14] = experiment: Induction of apoptosis in human MDA-MB-231 cells assessed as necrotic cells at […] by flow cytometric analysis; format: functional; details: dose 2.5 µM
4T1 [15] = experiment: Phototoxicity against mouse 4T1 cells in presence of illumination by MTT assay relative to control; format: functional
MDA-MB-231 [16] = experiment: Induction of apoptosis in human MDA-MB-231 cells assessed as necrotic cells at […] in presence of illumination by flow cytometric analysis; format: functional; details: dose 0.25 µM
MDA-MB-231 [17] = experiment: Cytotoxicity against human MDA-MB-231 cells assessed as reduction in cell viability at 5 uM by calcein-AM/PI staining based fluorescence analysis; format: functional
Erythrocyte [18] = experiment: Induction of hemolysis in RBC (unknown origin) in presence of 10% FBS; format: cell-based
[19] = Drug localization in lysosomes of human MDA-MB-231 cells at 0.5 uM by DAPI staining based confocal laser scanning microscopic method; format: ADME, subcellular, Lysosome; details: mda-mb-231, 0.5 µM
MDA-MB-231 [20] = experiment: Induction of apoptosis in human MDA-MB-231 cells assessed as early apoptotic cells at […] in presence of illumination by flow cytometric analysis; format: functional; details: dose 0.25 µM
[21] = Toxicity in ICR mouse assessed as effect on kidney morphology at 100 uM, iv measured after 24 hrs by H and E staining based light microscopic analysis; format: organism-based; details: in vivo
4T1 [22] = experiment: Antitumor activity against mouse 4T1 cells xenografted in BALB/c mouse assessed as reduction in tumor weight at 2.4 mg/kg, iv dosed every 3 days for 23 days and illuminated with 670 nm laser light 30 mins after the first dose and measured on day 23; format: functional; details: 4T1, iv, 552 h, time 23 day
MDA-MB-231 [23] = experiment: Cytotoxicity against human MDA-MB-231 cells assessed as reduction in cell viability at 0.5 uM by calcein-AM/PI staining based fluorescence analysis; format: functional
MDA-MB-231 [24] = experiment: Induction of apoptosis in human MDA-MB-231 cells assessed as early apoptotic cells at […] by flow cytometric analysis; format: functional; details: dose 2.5 µM
[25] = Binding affinity to 1-20% fetal bovine serum protein in PBS assessed as shift in Q-band by UV/Vis spectrophotometric analysis; format: ADME, cell-free, Bos taurus; details: cattle
[26] = Toxicity in ICR mouse assessed as effect on heart morphology at 100 uM, iv measured after 24 hrs by H and E staining based light microscopic analysis; format: organism-based; details: in vivo
[27] = Drug uptake in tumor of BALB/c mouse xenografted with mouse 4T1 cells at 100 uM, iv measured after 120 hrs by fluorescence molecular tomography; format: ADME, organism-based, Neoplasm; details: in vivo
[28] = Hepatotoxicity in ICR mouse assessed as hepatocytes with intact nuclei and cytoplasm at 100 uM, iv measured after 24 hrs by H and E staining based light microscopic analysis; format: toxicity, organism-based
[29] = Toxicity in ICR mouse assessed as effect on spleen morphology at 100 uM, iv measured after 24 hrs by H and E staining based light microscopic analysis; format: organism-based; details: in vivo
[30] = Drug uptake in human MDA-MB-231 cells by flow cytometric analysis; format: ADME, cell-based
[31] = Binding affinity to 1-20% fetal bovine serum protein in PBS assessed as increase in fluorescence emission by fluorescence spectrophotometric analysis; format: ADME, cell-free, Bos taurus; details: cattle
[32] = Hepatotoxicity in ICR mouse assessed as hepatocytes with extensive shrinking cytoplasm, destroyed intercellular connections, necrotic cells with smeared nuclei at 100 uM, iv measured after 24 hrs by H and E staining based light microscopic analysis; format: toxicity, organism-based
CWR22R = experiment: Cytotoxicity against human 22RV1 cells; format: functional, cell-based

| Drug uptake [6] | Kd (Albumin) | Drug uptake [30] | SMILES | Activity [1] | Activity (4T1 [2]) | inhibition in vivo at 2.4 mg/kg (4T1 [3]) | Activity (Erythrocyte [4]) | IC50 (4T1 [9]) | Activity (4T1 [11]) | Activity (4T1 [15]) | Activity (Erythrocyte [18]) | Activity [21] | Activity [26] | Activity [29] | further results |
| --- | --- | --- | --- | --- | --- | --- | --- | --- | --- | --- | --- | --- | --- | --- | --- |
| Not Active | 363 nM | Active | C=Cc1c(C)c2cc3nc(c4c5[nH]c(cc6nc(cc1[nH]2)C(C)=C6CC)c(C)c5C(=O)C4)[C@@H](CCC(=O)NCC(=O)NCC(=O)N[C@@H](CC(C)C)C(=O)N[C@@H](CCCCN)C(=O)N[C@H](CC(C)C)C(=O)N[C@@H](CC(C)C)C(=O)N[C@@H](CCCCN)C(=O)N[C@H](CCCCN)C(=O)N[C@@H](CC(C)C)C(=O)N[C@H](CC(C)C)C(=O)N[C@H](CCCCN)C(=O)N[C@@H](CCCCN)C(=O)N[C@@H](CC(C)C)C(=O)N[C@@H](CC(C)C)C(=O)N[C@H](CCCCN)C(=O)N[C@@H](CC(C)C)C(=O)N[C@@H](CC(C)C)C(N)=O)[C@@H]3C | Non-Toxic | Active | 90.1% | Toxic | 380 nM | 4.7% | 100% | Non-Toxic | Non-Toxic | Non-Toxic | Non-Toxic | Drug uptake [5]: Tde; Activity (4T1 [7]): 1.5%; Activity (4T1 [8]): Dose-Dependent Effect; IC50 (4T1 [8]): 1690 nM; Drug uptake [10]: Active; Drug uptake [12]: Not Active; Activity (MDA-MB-231 [13]): Active; Activity (MDA-MB-231 [14]): 37.52%; Activity (MDA-MB-231 [16]): 29%; Activity (MDA-MB-231 [17]): Active; Drug uptake [19]: Active; Activity (MDA-MB-231 [20]): 10.1%; inhibition in vivo at 2.4 mg/kg (4T1 [22]): 98.4%; Activity (MDA-MB-231 [23]): inactive; Activity (MDA-MB-231 [24]): 7.48%; Activity [25]: Active; Drug uptake [27]: Active; Activity [28]: Non-Toxic; Activity [31]: Active |
| – | – | – | CCN(CC)c1ccc2c(-c3ccccc3C(=O)NCC(=O)NCC(=O)N[C@@H](CC(C)C)C(=O)N[C@@H](CCCCN)C(=O)N[C@H](CC(C)C)C(=O)N[C@@H](CC(C)C)C(=O)N[C@@H](CCCCN)C(=O)N[C@H](CCCCN)C(=O)N[C@@H](CC(C)C)C(=O)N[C@H](CC(C)C)C(=O)N[C@H](CCCCN)C(=O)N[C@@H](CCCCN)C(=O)N[C@@H](CC(C)C)C(=O)N[C@@H](CC(C)C)C(=O)N[C@H](CCCCN)C(=O)N[C@@H](CC(C)C)C(=O)N[C@@H](CC(C)C)C(N)=O)c3ccc(=[N+](CC)CC)cc-3oc2c1 | Non-Toxic | Active | 47.3% | Toxic | – | 14.5% | – | Non-Toxic | Non-Toxic | Non-Toxic | Non-Toxic | Activity [32]: Toxic |
| – | – | – | CC(C)C[C@H](NC(=O)[C@H](CC(C)C)NC(=O)[C@@H](CCCCN)NC(=O)[C@H](CC(C)C)NC(=O)[C@H](CC(C)C)NC(=O)[C@H](CCCCN)NC(=O)[C@@H](CCCCN)NC(=O)[C@@H](CC(C)C)NC(=O)[C@H](CC(C)C)NC(=O)[C@@H](CCCCN)NC(=O)[C@H](CCCCN)NC(=O)[C@H](CC(C)C)NC(=O)[C@@H](CC(C)C)NC(=O)[C@H](CCCCN)NC(=O)[C@H](CC(C)C)NC(=O)CNC(=O)CN)C(N)=O | – | – | – | – | – | – | – | – | – | – | – | IC50 (CWR22R): 6000 nM |
| Active | 89.3 nM | Active | C=Cc1c(C)c2cc3nc(c4c5[nH]c(cc6nc(cc1[nH]2)C(C)=C6CC)c(C)c5C(=O)C4)[C@@H](CCC(=O)O)[C@@H]3C [PYROPHEOPHORBIDE A] | – | – | – | – | 130 nM | – | 90% | – | – | – | – | – |
